Experimental findings from PubChem BioAssay (NCI) are described below.

What all share (experiment): DTP human tumour cell line panel, 48 h
In experiment [1] the test system is OVCAR-3 ovarian.
For experiment [2], the system named is UACC-62 melanoma.
The test system of experiment [3] is A549 NSCLC.
The test system of experiment [4] is EKVX NSCLC.
The subject of experiment [5] is 786-0 renal.
For experiment [6], the system named is UO-31 renal.
For experiment [7], the system named is SK-OV-3 ovarian.
The subject of experiment [8] is OVCAR-5 ovarian.
The test system of experiment [9] is U251 CNS.
The test system of experiment [10] is MDA-MB-435.
Experiment [11] deals with NCI/ADR-RES ovarian.

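Method: 48-hour compound exposure of cells in 96-well plates, five concentrations, linear interpolation of endpoints. GI50 is the concentration that inhibits growth by half. Definition used: TGI = concentration required for complete inhibition of growth.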 A value given as a limit tells only on which side of the number the result lay.

Take `COc1cc2c(c(OC)c1)C(=O)C(=O)C(CC1(C)OCCCO1)=C2`: the TGI is 10.5 µM in [1]; 20.2 µM in experiment [2]; 28.3 µM in [3]; 29.6 µM in experiment [4]; 22 µM in [5]; 25.6 µM in experiment [6]. For the same molecule, the concentration for total growth inhibition (TGI) is 30.2 µM in [7], 37.7 µM in [8] and 28.7 µM in experiment [9].
Regarding `CCOC(=O)C1=C(C)C2C3C(=O)OC(=O)C3C1(C)C1C(=O)OC(=O)C21` (stereo not given), the TGI in [1], in experiment [2], in experiment [3], in [4], in experiment [5] and in experiment [6] was greater than 100 µM each time. The TGI in experiment [7] and in [9] was greater than 100 µM throughout.
On to `C[C@@]12C[C@@H](c3ccccc3O1)N1CCCSC1=N2`, for which the TGI in [1], in experiment [2], in experiment [10], in experiment [4], in experiment [5] and in [6] was greater than 100 µM in each case. For the same molecule, the TGI in experiment [7], in [8], in experiment [9] and in [11] was greater than 100 µM each time.
For the molecule `O=C(O)c1ccccc1/C=N\N(CCO)C1=NCCN1`, the concentration for total growth inhibition (TGI) in experiment [1], in experiment [2], in experiment [10], in [3], in [4] and in [5] was greater than 100 µM in each case. The concentration for total growth inhibition (TGI) in [6], in experiment [7], in experiment [8] and in experiment [9] was greater than 100 µM in each case.
On to `COc1ccccc1NC(=O)C(=O)C(c1cnc2ccc([N+](=O)[O-])cc2n1)[N+](=O)[O-]` (stereo not given), for which the total growth inhibition concentration (TGI) in [2], in experiment [3], in experiment [4], in [5], in experiment [6] and in experiment [7] was greater than 100 µM each time. Moreover, the TGI in experiment [8] and in [9] was greater than 100 µM in each case.
Turning to `CCOC(=O)NC(C(F)(F)F)(C(F)(F)F)P(=O)(OCC)OCC`, the TGI in experiment [1] is greater than 100 µM; in experiment [2], greater than 100 µM; in [10], greater than 100 µM; in experiment [5] it was greater than 100 µM; in experiment [6], 85.5 µM; in experiment [7], greater than 100 µM. The values for the TGI in experiment [8], in experiment [9] and in [11] were greater than 100 µM, 79.5 µM and greater than 100 µM, respectively.
For the molecule `CC1=C(N2CC2)C(=O)C(C)=C(N2CC2)C1=O`, the TGI in experiment [1] worked out at 0.658 µM; in experiment [2] it was 0.466 µM; in [3] it was 75.7 µM; in experiment [4], 2.68 µM; in [5], 0.622 µM; in experiment [6] it was 0.353 µM. In addition, the total growth inhibition concentration (TGI) worked out at 2.9 µM in experiment [7], 3.3 µM in experiment [8], 0.994 µM in [9] and 0.0574 µM in experiment [11].
In the case of `S=C1C(CCCOCc2ccccc2)C2CCCC23CC2(CCN13)OCCS2` (stereo not given), the TGI in experiment [1], in experiment [10], in experiment [4], in experiment [5], in [6] and in experiment [7] was greater than 10 µM in each case. Also, the TGI in [8], in experiment [9] and in experiment [11] was greater than 10 µM in each case.
For the molecule `O=C(O)C1Cc2[nH]c3ccccc3c2C2CCCC12` (stereo not given), the TGI in experiment [1], in experiment [2], in experiment [3], in [4], in experiment [5] and in [6] was greater than 100 µM in each case. In addition, the TGI in experiment [7], in experiment [8] and in [9] was greater than 100 µM in each case.
On to `CCCc1cn2c(/C=N/N=C(N)N)c(-c3ccc([N+](=O)[O-])cc3)nc2s1`, for which the concentration for total growth inhibition (TGI) in [1] came out at 0.377 µM; in experiment [2], 3.35 µM; in experiment [10] it was 3.1 µM; in experiment [3] it was 2.91 µM; in [4], 3.62 µM; in experiment [5], 1.97 µM. Further, the total growth inhibition concentration (TGI) came to 2.92 µM in experiment [7], 3.14 µM in experiment [8] and 1.39 µM in [9].
Turning to `COc1cc(Cn2c3ccccc3c3cc(C)cc(OC)c32)cc2c1[nH]c1ccccc12`, the TGI in experiment [1], in [2], in [3], in experiment [5], in experiment [6] and in experiment [7] was greater than 25 µM each time. Moreover, the total growth inhibition concentration (TGI) in experiment [8] and in [9] was greater than 25 µM throughout. The GI50 is 15 µM in experiment [2] and 23.2 µM in [3].
On to `CC(C)(C)C1CCC2c3c([nH]c4ccccc34)C3C(=O)N(c4cc(Cl)ccc4Cl)C(=O)C3C2C1` (stereo not given), for which the TGI in experiment [1], in experiment [2], in [10], in experiment [3], in experiment [4] and in experiment [5] was greater than 100 µM each time. The concentration for total growth inhibition (TGI) in [6], in experiment [7], in experiment [8] and in experiment [11] was greater than 100 µM in each case.
For `N#CCCN(c1ccc(C=Nc2ccc(C(=O)O)cc2)cc1)S(=O)(=O)c1ccccc1`, the TGI in experiment [1], in experiment [2], in [3], in experiment [4], in experiment [5] and in experiment [6] was greater than 100 µM throughout. In addition, the concentration for total growth inhibition (TGI) in [7], in experiment [8] and in experiment [9] was greater than 100 µM in each case.
With `COC(=O)N1C2C(C[C@@]1(C)C(=O)OC)c1ccccc1N2S(=O)(=O)c1ccccc1` (stereo not given in full), the TGI in experiment [1], in experiment [2], in experiment [10], in experiment [3], in [4] and in [5] was greater than 100 µM in each case. In addition, the TGI in [6], in [7], in experiment [8] and in [11] was greater than 100 µM in each case.
